Experimental data from patent publication US20140030260A1, “METHODS AND COMPOSITIONS TO ELIMINATE CHRONIC LYMPHOCYTIC LEUKEMIA AND OTHER HEMATOLOGIC MALIGNANT CELLS IN STROMAL MICROENVIRONMENT FOR CANCER THERAPY” (BOARD OF REGENTS, THE UNIVERSITY OF TEXAS SYSTEM, priority 2010, published 2014).
“Also recorded” adds a separate entry of the source.

How the values were obtained:
[1] = system: primary leukemia cells (CLL); assay: Viability of primary CLL cells cultured alone or with stromal cells, flow cytometry after annexin-V/PI double-staining; details: for effect on the toxicity of selecticine in CLL cells: patient #17, co-culture with various types of marrow cells, 20 μM selecticine
Method: The cells were then treated with 50 μM selecticine for 2 days, and cell viability was measured by flow cytometry analysis after double-staining with annexin-V and PI.
The cells were then treated with 50 or 100 μM selecticine for 2 days. Cell viability was then measured by flow cytometry analysis after double-staining with annexin-V and PI.
The cells were then treated with 50 μM selecticine for 2 days. Cell viability was then measured by flow cytometry analysis after double-staining with annexin-V and PI.
Cell viability was then measured by flow cytometry analysis after double-staining with annexin-V and PI.
CLL cells isolated from two different patients were treated as follow: (1) Control (CLL alone); (2) Selenocystine mixed with the conditioned medium (CM) of stromal cell culture; (3) Medium from stromal cell culture incubated with selenocystine. After an additional 48-h incubation with CLL cells (without stramal), cell viability was measured by flow cytometry analysis after double-staining with annexin-V and PI.
CLL cells (without stromal) were then incubated for 72 hours with: (1) control medium; (2) 200 μM 2-mercaptoethanol (2ME) alone; (3) 50 μM selenocystine alone; (4) Selecticine-02 (50 μM selenocystine+200 μM 2-mercaptoethanol pre-mixed overnight). Cell viability was measured by flow cytometry analysis after double-staining with annexin-V and PI.
The experimental conditions were the same as FIG. 14, except the selenocystine:2ME ration was 5:2 instead of 1:4.
The cells were then treated with 50 mM selenocystine for 2 days.

[2] = system: EBV-immortalized normal lymphocytes; assay: Viability of immortalized normal lymphocytes with or without stromal cells, annexin-V/PI flow cytometry; format: cell-based; details: not further specified
Excerpt: The numbers indicate % of viable cells.

CLL cells = assay: ROS, cellular thiol and glutathione in CLL cells (mitosox Red, CMFDA); format: cell-based, human; details: in the presence of stromal cells (HS-5); 50 μM
Excerpt: Mitochondrial ROS levels were stained by mitosox Red (A) and cellular thiol was stained by CMFDA (B).

SMILES: CCCCS(=N)(=O)CCC(N)C(=O)O (stereo not drawn) [BSO, reference compound]
- effect on the toxicity of selecticine in CLL cells [1]: enhanced

SMILES: Nc1nc(F)nc2c1ncn2[C@@H]1O[C@H](CO)[C@@H](O)[C@@H]1O [F-ara-A, reference compound]
- effect of stromal cells on the drug's cytotoxicity in CLL cells ([1]; patient #10, different types of stromal cells, 50 μM selecticine, 20 μM F-ara-A or 20 μM oxaliplatin, 2 days): protected

SMILES: CC(=O)N[C@@H](CS)C(=O)O [NAC, reference compound]
- effect on the toxicity of selecticine in CLL cells [1]: protected

SMILES: NC(C[SeH])C(=O)O (stereo not drawn) [selenocysteine, 3-selenyl-2-aminopropanoic acid]
- toxicity to normal cells [2]: low toxicity
- toxicity to CLL leukemia cells of the active compound formed by stromal cells ([1]; mechanistic studies): highly toxic

SMILES: NC(C[Se][Se]CC(N)C(=O)O)C(=O)O (stereo not drawn) [selenocystine, 2-amino-3-(2-amino-2-carboxy-ethyl)selanylselanyl-propanoic acid]
- ROS generation in CLL cells (mitochondrial ROS, mitosox Red) (CLL cells): significant increase in ROS production
- cytotoxic effect on leukemia (CLL) cells ([1]; cultured alone / in the absence of stromal cells): only moderate cytotoxic effect
- killing of primary CLL cells (cell viability) ([1]; in the presence of bone marrow stromal cells (HS-5), 50 μM, 2 days): highly potent cytotoxic effect; also recorded: considerable leukemia cell death
- toxicity to CLL cells after conversion by stromal factor in stromal conditioned medium ([1]; mixed or incubated with stromal cell culture medium, 48-h incubation with CLL cells without stromal cells): highly toxic
